Values quoted from earlier work as cited in patent US10359349B2, “Use of focused light scattering techniques in biological applications” (AIDIA INVESTMENT GROUP, INC., priority 2008, dated 2019).

Test system: platelets
Conditions: platelet inhibition in arterial thrombophilic diseases; share of drug-treated patients whose platelets are not inhibited

Compound	treated patients who do not respond to treatment
CC(=O)Oc1ccccc1C(=O)O [ASA, Aspirin]	Approximately 25%
COC(=O)[C@H](c1ccccc1Cl)N1CCc2sccc2C1 [Plavix, clopidogrel bisulfate]	~29%
